Assay results reported in ChEMBL document CHEMBL2016457, “Discovery of potent and orally bioavailable 17β-hydroxysteroid dehydrogenase type 3 inhibitors” (Bioorg Med Chem, 2012).
The source made the active and inactive calls.

What was measured:
[1] = biological target: T1, 17-beta-hydroxysteroid dehydrogenase type 1 (Homo sapiens) (UniProt P14061); assay: Inhibition of human recombinant 17-beta-HSD1 expressed in human HeLa cells using estrone as substrate preincubated for 30 mins prior substrate addition measured after 120 mins by spectrophotometry; format: cell-based
T1 sequence (whole entry): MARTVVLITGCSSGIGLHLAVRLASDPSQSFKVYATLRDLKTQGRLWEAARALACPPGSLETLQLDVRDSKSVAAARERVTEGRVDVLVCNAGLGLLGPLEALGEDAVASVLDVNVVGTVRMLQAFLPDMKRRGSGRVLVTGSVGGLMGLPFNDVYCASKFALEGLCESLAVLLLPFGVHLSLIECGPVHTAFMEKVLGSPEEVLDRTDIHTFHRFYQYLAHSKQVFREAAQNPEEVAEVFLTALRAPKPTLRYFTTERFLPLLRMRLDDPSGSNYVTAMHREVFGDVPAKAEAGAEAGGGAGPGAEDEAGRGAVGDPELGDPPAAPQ

[2] = biological target: T2, 17-beta-hydroxysteroid dehydrogenase type 2 (Homo sapiens) (UniProt P37059); assay: Inhibition of human recombinant 17-beta-HSD2 expressed in human HeLa cells using estradiol as substrate preincubated for 30 mins prior substrate addition measured after 120 mins by spectrophotometry; format: cell-based
T2 sequence (whole entry): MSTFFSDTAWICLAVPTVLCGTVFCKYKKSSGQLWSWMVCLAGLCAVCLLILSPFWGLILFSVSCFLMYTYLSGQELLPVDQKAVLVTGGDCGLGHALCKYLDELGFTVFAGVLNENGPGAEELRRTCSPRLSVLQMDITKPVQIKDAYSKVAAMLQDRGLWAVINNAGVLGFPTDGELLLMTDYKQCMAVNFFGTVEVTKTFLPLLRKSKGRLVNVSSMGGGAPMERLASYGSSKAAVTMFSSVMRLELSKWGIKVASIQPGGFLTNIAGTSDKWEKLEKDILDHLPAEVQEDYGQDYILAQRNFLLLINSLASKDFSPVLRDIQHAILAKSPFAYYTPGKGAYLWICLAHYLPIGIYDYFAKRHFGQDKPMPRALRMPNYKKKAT

[3] = biological target: T3, Androgen receptor (Homo sapiens) (UniProt P10275); assay: Agonist activity at human androgen receptor expressed in human HeLa cells assessed as DHT-induced response after 40 hrs by luciferase/beta-galactosidase-based reporter gene assay; format: functional, cell-based
T3 sequence (whole entry): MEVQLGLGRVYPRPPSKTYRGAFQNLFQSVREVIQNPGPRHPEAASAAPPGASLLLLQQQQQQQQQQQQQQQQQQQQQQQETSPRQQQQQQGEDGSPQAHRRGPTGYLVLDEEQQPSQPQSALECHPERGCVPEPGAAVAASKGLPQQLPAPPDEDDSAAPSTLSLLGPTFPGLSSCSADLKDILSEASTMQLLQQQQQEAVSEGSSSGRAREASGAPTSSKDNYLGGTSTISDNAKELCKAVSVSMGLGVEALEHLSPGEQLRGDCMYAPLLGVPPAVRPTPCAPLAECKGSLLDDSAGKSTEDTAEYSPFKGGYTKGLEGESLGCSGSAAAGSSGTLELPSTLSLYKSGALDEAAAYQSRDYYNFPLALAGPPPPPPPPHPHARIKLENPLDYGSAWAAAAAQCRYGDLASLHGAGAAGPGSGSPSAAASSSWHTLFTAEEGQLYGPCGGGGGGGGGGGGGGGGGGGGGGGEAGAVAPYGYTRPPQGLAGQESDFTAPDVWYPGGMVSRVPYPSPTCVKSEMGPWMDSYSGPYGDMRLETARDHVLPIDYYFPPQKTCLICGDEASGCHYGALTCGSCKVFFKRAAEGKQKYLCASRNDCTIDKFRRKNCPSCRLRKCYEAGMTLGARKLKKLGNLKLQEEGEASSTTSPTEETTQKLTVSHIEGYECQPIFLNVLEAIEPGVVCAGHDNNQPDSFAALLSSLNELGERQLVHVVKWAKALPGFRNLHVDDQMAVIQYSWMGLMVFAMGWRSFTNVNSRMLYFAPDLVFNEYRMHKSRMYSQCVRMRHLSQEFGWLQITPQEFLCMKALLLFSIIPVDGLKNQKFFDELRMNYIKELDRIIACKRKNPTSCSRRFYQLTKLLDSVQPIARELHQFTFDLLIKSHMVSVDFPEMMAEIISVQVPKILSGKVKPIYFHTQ

[4] = biological target: T4, Estrogen receptor (Homo sapiens) (UniProt P03372); assay: Agonist activity at human Estrogen receptor ERalpha expressed in human HeLa cells assessed as DHT-induced response after 40 hrs by luciferase/beta-galactosidase-based reporter gene assay; format: functional, cell-based
T4 sequence (whole entry): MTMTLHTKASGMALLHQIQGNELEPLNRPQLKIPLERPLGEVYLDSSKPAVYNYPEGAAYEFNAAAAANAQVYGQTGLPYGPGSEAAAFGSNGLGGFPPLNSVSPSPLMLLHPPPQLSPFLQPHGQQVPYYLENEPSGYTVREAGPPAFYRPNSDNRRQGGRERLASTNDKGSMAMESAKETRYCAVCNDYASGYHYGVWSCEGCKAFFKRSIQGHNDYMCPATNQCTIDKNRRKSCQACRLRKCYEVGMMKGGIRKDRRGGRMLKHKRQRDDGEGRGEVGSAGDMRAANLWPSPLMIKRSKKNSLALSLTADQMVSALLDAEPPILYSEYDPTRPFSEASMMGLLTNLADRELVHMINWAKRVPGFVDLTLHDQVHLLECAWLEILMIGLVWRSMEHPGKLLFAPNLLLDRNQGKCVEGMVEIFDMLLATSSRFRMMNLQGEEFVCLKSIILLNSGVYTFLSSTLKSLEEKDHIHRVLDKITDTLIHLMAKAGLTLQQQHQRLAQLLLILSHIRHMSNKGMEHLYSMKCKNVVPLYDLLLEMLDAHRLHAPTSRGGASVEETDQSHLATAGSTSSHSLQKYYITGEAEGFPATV

[5] = biological target: T3, Androgen receptor (Homo sapiens); assay: Antagonist activity at human androgen receptor expressed in human HeLa cells assessed as inhibition of DHT-induced response after 40 hrs by luciferase/beta-galactosidase-based reporter gene assay; format: functional, cell-based
[6] = biological target: T4, Estrogen receptor (Homo sapiens); assay: Antagonist activity at human ERalpha receptor expressed in human HeLa cells assessed as inhibition of DHT-induced response after 40 hrs by luciferase/beta-galactosidase-based reporter gene assay; format: functional, cell-based

COc1ccc(N2C(=O)/C(=C/c3cc(Cl)c(OP(=O)(O)O)c(Cl)c3)OC2=S)cc1
inactive: inhibition [1] | inhibition [2] | Activity [3] | Activity [4] | Activity [5] | Activity [6]

COc1ccc(N2C(=O)/C(=C/c3cc(Cl)c(O)c(Cl)c3)OC2=S)cc1
inactive: inhibition [1] | inhibition [2] | Activity [3] | Activity [4] | Activity [5] | Activity [6]
